Test systems include SR; HCC 2998; M14; SF-539; NCI-H460; SN12C; NCI-H522; T47D; RXF 393; SF-268; PC-3; SW-620; OVCAR-8; TK-10; OVCAR-3; 786-0; Hs-578T; HCT-116; EKVX; BT-549.
What all share (assay): NCI-60 cell line screen, 48 h

The structures appear in SMILES notation.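 The compound was tested at five concentrations on cells cultured in 96-well plates, with a 48-hour exposure period. GI50: concentration for 50% inhibition of growth.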 The source made the active and inactive calls. Cut-off read from the data, not from the text of the source: active = GI50 up to about 1.1 µM and inactive = higher.

`COc1cc(/C=C/c2ccc(/C=C/c3cc(OC)c(OC)c(OC)c3)cc2)cc(OC)c1OC`: the GI50 in the assay with SR is > 100 µM (inactive); in the assay with HCC 2998, 22.2 µM (inactive); with M14, 39.3 µM (inactive); in the assay on SF-539, 4.6 µM (inactive); in the assay on NCI-H460, 25.5 µM (inactive); in the assay with SN12C it was 56.8 µM (inactive). In addition, the GI50 was 8.11 µM (inactive) in the assay with NCI-H522; 3.39 µM (inactive) with T47D; 6.68 µM (inactive) in the assay with RXF 393; 11.7 µM (inactive) in the assay with SF-268; 27.5 µM (inactive) with PC-3; > 84.9 µM (inactive) with SW-620. The GI50 with OVCAR-8 is 12.2 µM (inactive); with TK-10, 17.6 µM (inactive); in the assay on OVCAR-3, 25.2 µM (inactive); in the assay on 786-0, 7.94 µM (inactive); in the assay with Hs-578T, 18.9 µM (inactive); in the assay with HCT-116, 28.7 µM (inactive). Also, the GI50 with EKVX was > 46.9 µM (inactive).
`CNC(=O)/C(C#N)=C(\N)N1CCCC1`: the GI50 in the assay with SR, in the assay on HCC 2998, with SF-539, with NCI-H460, in the assay on SN12C and in the assay on NCI-H522 was > 100 µM (inactive) throughout. For the same molecule, the GI50 with T47D, with RXF 393, with SF-268, in the assay with PC-3, in the assay on SW-620 and in the assay on OVCAR-8 was > 100 µM (inactive) in each case. The GI50 with TK-10, with OVCAR-3, in the assay with 786-0, in the assay on Hs-578T, in the assay on HCT-116 and in the assay with EKVX was > 100 µM (inactive) each time.
For `CCCCC1Cc2ccccc2-c2n1c1ccccc1[n+]2C` (configuration not stated), the GI50 in the assay with SR is 7.67 µM (inactive); in the assay with HCC 2998, 5.47 µM (inactive); in the assay on M14 it was 23.3 µM (inactive); with SF-539, 27.8 µM (inactive); in the assay on NCI-H460, 16.2 µM (inactive); with NCI-H522, 3.87 µM (inactive). Moreover, the GI50 in the assay on T47D was 0.959 µM (active); in the assay with RXF 393 it was 13.3 µM (inactive); in the assay with SF-268, 11.4 µM (inactive); with PC-3, 5.93 µM (inactive); in the assay on SW-620, 23.7 µM (inactive); in the assay on OVCAR-8, 21.9 µM (inactive). The GI50 in the assay on TK-10 was 22.8 µM (inactive); in the assay on OVCAR-3, 4.15 µM (inactive); with 786-0, 38.2 µM (inactive); in the assay with Hs-578T, 12.1 µM (inactive); with HCT-116, 17.6 µM (inactive); in the assay on EKVX, 25.9 µM (inactive).
In the case of `CC1CC(N)=Nc2ccccc2N1` (configuration not stated), the GI50 in the assay with HCC 2998, in the assay with M14, with SN12C, in the assay with NCI-H522, with RXF 393 and in the assay with SF-268 was > 100 µM (inactive) throughout. Further, the GI50 in the assay on PC-3, in the assay on SW-620, in the assay with BT-549, in the assay on OVCAR-8, in the assay with TK-10 and with OVCAR-3 was > 100 µM (inactive) in each case. The GI50 with 786-0, in the assay with Hs-578T, in the assay with HCT-116 and in the assay on EKVX was > 100 µM (inactive) in each case.
With `N#CCN(Cc1ccccc1)[C@H]1CCC[C@]1(O)/C=C/c1ccc2c(c1)OCO2`, the GI50 in the assay with SR was 17.5 µM (inactive); with HCC 2998, 18.4 µM (inactive); in the assay on M14 it was 16.5 µM (inactive); in the assay with SF-539, 41.1 µM (inactive); in the assay on NCI-H460, 18.3 µM (inactive); in the assay with NCI-H522, 17 µM (inactive). Also, the GI50 in the assay on T47D was 19.3 µM (inactive); in the assay on RXF 393, 23.6 µM (inactive); with SF-268 it was 34.4 µM (inactive); with PC-3 it was 16.8 µM (inactive); with SW-620, 20.8 µM (inactive); in the assay with OVCAR-8 it was 17.1 µM (inactive). Besides, the GI50 in the assay with TK-10 is 42.9 µM (inactive); in the assay on OVCAR-3, 5.41 µM (inactive); in the assay on 786-0, 17.4 µM (inactive); in the assay with Hs-578T, 17.2 µM (inactive); with EKVX it was 76.9 µM (inactive).
Turning to `CCOP(=O)(OCC)C(N)Cc1ccc(OC)c(OC)c1` (configuration not stated), the GI50 in the assay on SR, with HCC 2998, in the assay with M14, in the assay on SF-539, with NCI-H460 and in the assay on SN12C was > 100 µM (inactive) throughout. In addition, the GI50 with NCI-H522, with T47D, with RXF 393, with SF-268, with PC-3 and in the assay with SW-620 was > 100 µM (inactive) each time. Also, the GI50 in the assay with BT-549, in the assay with OVCAR-8, in the assay on TK-10, in the assay on OVCAR-3, with 786-0 and with HCT-116 was > 100 µM (inactive) in each case.
Consider `COc1ccc(/C=C2/S/C(=N\c3ccccc3)N(NC(=O)Cc3ccccc3)C2=O)cc1`, for which the GI50 with HCC 2998, in the assay on M14, in the assay on SF-539, in the assay with NCI-H460, with SN12C and with T47D was > 100 µM (inactive) in each case. Also, the GI50 in the assay with RXF 393, with SF-268, in the assay on SW-620, with BT-549, with OVCAR-8 and in the assay on TK-10 was > 100 µM (inactive) each time. For the same molecule, the GI50 in the assay with OVCAR-3, in the assay on 786-0, in the assay on Hs-578T, with HCT-116 and in the assay on EKVX was > 100 µM (inactive) each time.
On to `CN(C)C(=S)/N=c1\ssc(=S)n1Cc1cccnc1`, for which the GI50 is 0.638 µM (active) with SR; 2.54 µM (inactive) in the assay with HCC 2998; 2.37 µM (inactive) with M14; 4.02 µM (inactive) in the assay on SF-539; 2.81 µM (inactive) in the assay with NCI-H460; 5.18 µM (inactive) in the assay on SN12C. Besides, the GI50 in the assay on NCI-H522 is 0.531 µM (active); in the assay with T47D, > 100 µM (inactive); in the assay with RXF 393 it was 1.47 µM (inactive); in the assay with SF-268, 15.2 µM (inactive); in the assay with PC-3 it was 1.67 µM (inactive); in the assay with SW-620, 1.26 µM (inactive). In addition, the GI50 with OVCAR-8 is 3.66 µM (inactive); in the assay with TK-10, 14.2 µM (inactive); with OVCAR-3, 1.65 µM (inactive); in the assay with 786-0 it was 4.07 µM (inactive); in the assay on Hs-578T, 1.86 µM (inactive); in the assay with HCT-116 it was 3.2 µM (inactive). Besides, in the assay with EKVX, the GI50 was > 88.9 µM (inactive).
`CC(C)C(=O)Oc1cc2c(=O)oc3c(OC(=O)C(C)C)c(OC(=O)C(C)C)cc4c(=O)oc(c1OC(=O)C(C)C)c2c34`: the GI50 in the assay on HCC 2998, with M14, in the assay on SF-539, in the assay on NCI-H460, in the assay on SN12C and in the assay with NCI-H522 was > 100 µM (inactive) each time. In addition, the GI50 in the assay on RXF 393, in the assay with SF-268, in the assay on PC-3, with SW-620, in the assay on BT-549 and with OVCAR-8 was > 100 µM (inactive) each time. Besides, the GI50 with TK-10, in the assay with OVCAR-3, in the assay with 786-0, in the assay with Hs-578T, in the assay with HCT-116 and with EKVX was > 100 µM (inactive) in each case.
For `OC[C@H]1C[C@@H]2Cc3ccccc3N2N1`, the GI50 with SR, in the assay with HCC 2998, in the assay on M14, in the assay with SF-539, in the assay on NCI-H460 and in the assay with SN12C was > 100 µM (inactive) throughout. Also, the GI50 with NCI-H522, in the assay on T47D, with RXF 393, with SF-268, in the assay on PC-3 and with SW-620 was > 100 µM (inactive) each time. The GI50 in the assay on OVCAR-8, in the assay on TK-10, in the assay with OVCAR-3, with 786-0, in the assay on Hs-578T and in the assay on HCT-116 was > 100 µM (inactive) throughout. Further, the GI50 in the assay on EKVX is > 100 µM (inactive).
Take `CC(=O)c1c2c(cc3c1CC1(Cc4cc5c(cc4C1)C(=O)CCC5)C3)CCCC2` (configuration not stated): the GI50 is 2.48 µM (inactive) in the assay on SR; 12.5 µM (inactive) in the assay with HCC 2998; 7.8 µM (inactive) in the assay on M14; 4.17 µM (inactive) in the assay with SF-539; 4.69 µM (inactive) in the assay on NCI-H460; 13.4 µM (inactive) in the assay on SN12C. The GI50 in the assay on NCI-H522 was 4.31 µM (inactive); in the assay on T47D, 5.38 µM (inactive); with SF-268, 8.07 µM (inactive); in the assay on PC-3, 5.53 µM (inactive); with SW-620, 5.25 µM (inactive); with OVCAR-8 it was 13.9 µM (inactive). The GI50 was 16.5 µM (inactive) with TK-10; 7.59 µM (inactive) in the assay with OVCAR-3; 5.66 µM (inactive) in the assay with 786-0; > 29.9 µM (inactive) in the assay with Hs-578T; 14.4 µM (inactive) in the assay on HCT-116; > 23.8 µM (inactive) in the assay on EKVX.

The values are drawn from ChEMBL document CHEMBL1201862, “PubChem BioAssay data set” (2004).
